This is an account of results in ChEMBL document CHEMBL1154149, “Antimalarial pharmacodynamics of chalcone derivatives in combination with artemisinin against Plasmodium falciparum in vitro” (Eur J Med Chem, 2009).

As usually defined, the pIC50 is the IC50 on a negative log10 scale, so that one unit is a factor of ten.

pIC50: −log10 of the molar value.

In assay [1] the test system is Plasmodium falciparum. The assay is described as follows: Antiplasmodial activity against chloroquine-sensitive Plasmodium falciparum 3D7 infected in type B+ human erythrocytes assessed as reduction of hemozoin formation at IC50 after 48 hrs relative to control. The arrangement: scale not given: the % may be the effect or the level left. Format: functional.
Assay [2] deals with Plasmodium falciparum. Put plainly: Antiplasmodial activity against chloroquine-sensitive Plasmodium falciparum 3D7 infected in type B+ human erythrocytes assessed as inhibition of ring stage parasite after 18 hrs followed by incubation in drug-free medium for 48 hrs by stage specific inhibition assay relative to control. Format: functional.
Assay [3] concerns Plasmodium falciparum. Put plainly: Antiplasmodial activity against chloroquine-sensitive Plasmodium falciparum 3D7 infected in type B+ human erythrocytes assessed as inhibition of sorbitol-induced hemolysis at 10 mM after 15 min by spectrophotometry. The assay is classed as functional. The arrangement: scale not given: the % may be the effect or the level left.
For assay [4], the system named is Plasmodium falciparum. Put plainly: Antiplasmodial activity against chloroquine-sensitive Plasmodium falciparum 3D7 infected in type B+ human erythrocytes assessed as inhibition of trophozoite stage parasite after 18 hrs followed by incubation in drug-free medium for 48 hrs by stage specific inhibition assay relative to control. Format: functional.
Assay [5] relates to Plasmodium falciparum. Put plainly: Antiplasmodial activity against chloroquine-sensitive Plasmodium falciparum 3D7 infected in type B+ human erythrocytes assessed as inhibition of schizont stage parasite after 12 hrs followed by incubation in drug-free medium for 48 hrs by stage specific inhibition assay relative to control. Format: functional.
For assay [6], the system named is Plasmodium falciparum. The assay is described as follows: Antiplasmodial activity against chloroquine-sensitive Plasmodium falciparum 3D7 infected in type B+ human erythrocytes assessed as inhibition of sorbitol-induced hemolysis at 5 nM after 15 min by spectrophotometry. The assay is classed as functional. The arrangement: scale not given: the % may be the effect or the level left.

Assay [7] relates to Plasmodium falciparum. Put plainly: Antiplasmodial activity against chloroquine-sensitive Plasmodium falciparum 3D7 infected in type B+ human erythrocytes assessed as inhibition of parasitemia after 48 hrs by Giemsa staining. The assay is classed as functional, organism-based. Conditions: 3D7, 48 h.
Assay [8] concerns Plasmodium falciparum. The assay is described as follows: Antiplasmodial activity against chloroquine-sensitive Plasmodium falciparum 3D7 infected in type B+ human erythrocytes assessed as inhibition of sorbitol-induced hemolysis at 10 uM after 15 min by spectrophotometry. The assay is classed as functional. The arrangement: scale not given: the % may be the effect or the level left.

In assay [9] the test system is Plasmodium falciparum. The assay is described as follows: Antiplasmodial activity against chloroquine-sensitive Plasmodium falciparum 3D7 infected in type B+ human erythrocytes assessed as inhibition of sorbitol-induced hemolysis at 10 nM after 15 min by spectrophotometry. The assay is classed as functional. The arrangement: scale not given: the % may be the effect or the level left.

Take `O=C(/C=C/c1ccc(Cl)cc1)c1ccc(-n2cncn2)cc1`: the Activity in assay [1] is 47.8%; in assay [3], 36.1%. The “inhibition (INH)” value in assay [2] is given as 48.7%; in assay [4], 65.8%; in assay [5], 40.1%.

Consider `O=C(/C=C/c1ccc(Cl)cc1)c1ccc(-n2cccc2)cc1`, for which the figures for the Activity in assay [1] and in assay [3] were 48.8% and 85.9%, respectively. Further, the “inhibition (INH)” value was 51.4% in assay [2], 61.5% in [4] and 48.9% in [5].

Consider `O=C(/C=C/c1ccc(Cl)cc1)c1ccc(-n2nnc3ccccc32)cc1`, for which the Activity in assay [1] is recorded as 47.7%; in assay [3] it was 90%. Further, the results for the “inhibition (INH)” value in assay [2], in [4] and in [5] were 47.9%, 70.9% and 41%, respectively.

For `C[C@@H]1CC[C@H]2[C@@H](C)C(=O)O[C@@H]3O[C@@]4(C)CC[C@@H]1[C@]32OO4` [ARTEMISININ], the Activity was determined as 48.3% in assay [1] and 90.9% in [6]. Further, in assay [7], the pIC50 is 8.40.

Turning to `NS(=O)(=O)c1cc(C(=O)O)c(NCc2ccco2)cc1Cl` [FUROSEMIDE], the Activity in assay [8] stood at 56.3%.

For the molecule `C=CC(C)(C)c1cc(/C=C/C(=O)c2ccc(O)cc2)c(OC)cc1O` [LICOAGROCHACONE A], in assay [7], the pIC50 was 8.38.

With `CCc1nc(N)nc(N)c1-c1ccc(Cl)cc1` [PYRIMETHAMINE], the Activity in [1] amounted to 56.3%; in [9], 92.2%.
